Assay results: patent US20100190184A1, “SCREENING METHOD UTILIZING NOVEL SUBSTRATE C-RET FOR GAMMA-SECRETASE” (Eisai R & D Management Co., Ltd., priority 2007, published 2010)

Target: T1, γ-secretase (cleavage of rat c-Ret with HA tag in HEK293 cells) (Homo sapiens, UniProt P49768)
T1 construct: endogenous in cells; host or cells: 293/EBNA-1 cell strain (HEK293), transiently transfected with rat c-Ret-HA only
Assay: Analysis of c-Ret processing in c-Ret-transfected 293/EBNA-1 cell strain (Western blotting with anti-HA antibody)
Assay type: cell-based
Set-up: dose or concentration left out as unconfirmed
Conditions: Compound E added to culture broth, one day; 293/EBNA-1 (HEK293) cells transfected with rat c-Ret-HA; versus untreated sample
Protocol: Whether or not c-Ret is a substrate for γ-secretase was evaluated using HEK293 cells expressing a gene encoding c-Ret with an HA tag added to its C-terminus, in the presence of a γ-secretase inhibitor. As the γ-secretase inhibitor, (2S)-2-{[(3,5-difluorophenyl)acetyl]amino}-N-[(3S)-1-methyl-2-oxo-5-phenyl-2,3-dihydro-1H-1,4-benzodiazepin-3-yl]propanamide (hereinafter, sometimes referred to as “Compound E”) (Alexis Biochemicals) was used. 293/EBNA-1 cell strain (Invitrogen) was cultured in 6-well dishes containing 10% FBS (Hyclone)/DMEM (Invitrogen) under 5% CO2 at 37° C., followed by transfection thereinto of the gene encoding rat c-Ret with an HA tag added to its C-terminus using Lipofectamine 2000 (Invitrogen). After one day culture under the same conditions, 50 mM Compound E (Alexis Biochemicals) was added to the culture broth. Cells were cultured for another day under the same conditions. Then, the transfected HEK293 cells were collected with PBS (Sigma) and sonicated with a sonicator (Taitec VP-5S) to disrupt cells. Then, the quantity of protein was determined with Protein Assay Kit (BioRad). Samples (2 μg each) were taken from proteins obtained from Compound E-added cells and Compound E-not added cells, respectively, and subjected to SDS-PAGE, followed by Western blotting with an anti-HA antibody (Roche) (final concentration: 0.2 μg/ml). […]

SMILES: C[C@H](NC(=O)Cc1cc(F)cc(F)c1)C(=O)N[C@H]1N=C(c2ccccc2)c2ccccc2N(C)C1=O [Compound E, (2S)-2-{[(3,5-difluorophenyl)acetyl]amino}-N-[(3S)-1-methyl-2-oxo-5-phenyl-2,3-dihydro-1H-1,4-benzodiazepin-3-yl]propanamide]
- effect on cleavage of c-Ret by γ-secretase (c-Ret C terminal fragment band, Western blot): a band around 50 kDa (CTF) was accumulated specifically as a c-Ret undegraded product
